{
  "source": "patent US20210008137A1",
  "about": "“EXTRACTS OF COPRINUS COMATUS AND THEIR USE FOR REGULATING THE PILOSEBACEOUS UNIT IN A HUMAN” (Symrise AG, priority 2017, published 2021)",
  "system": "human sebaceous glands (hSGs)",
  "experiment": "Sebum content of ex-vivo cultured human sebaceous glands (lipids/proteins ratio)",
  "assay_type": "cell-based",
  "conditions": "5 μM, positive control; for Sebum content in hSGs, Average as % ratio of the control group: day 6 of organ culture",
  "procedure": "At the end of the culture time, the sebum was extracted and quantified from each experimental group of hSGs and then normalized by the proteins extracted from the residual hSG material (mg lipids/mg proteins). As a result, the biological activity of the tested compounds is inferred by comparing the lipids/proteins ratio of the treated glands with that of the control group. Using micro-scissors and tweezers, hSGs were isolated from the pilosebaceous units of a scalp skin sample. […] After 24 hours of culture the viability of the glands was assessed via resazurin assay and then, having attested their good viability, the culture medium was substituted with the same medium supplemented with experimental extracts, whereas the control group received again the standard medium. The culture medium was renewed every other day. At day six of the organ culture, after having preventively verified the good viability of the hSGs via resazurine assay, each group of hGSs was collected and analyzed for quantifying the sebum content. […] Methods are described in detail in WO2016020339 A8. The amounts of normalized lipids obtained from the treated groups, i.e. the sebum produced by each group of hSGs, were expressed in percentages with respect to the value obtained from the control group, in order to point out the regulatory effect performed by the experimental treatment.",
  "data": [
    {"smiles": "COc1cc(CNC(=O)CCCC/C=C/C(C)C)ccc1O", "note": "[capsaicin, Capsaicin]", "values": [
      {"measurement": "Reduction of the sebum content of the hSGs in comparison with the control group", "setting": "Table 6 experiment", "result": 26.5, "unit": "%"},
      {"measurement": "Sebum content in hSGs, Average as % ratio of the control group", "setting": "Table 6 experiment", "result": 73.5, "unit": "%"},
      {"measurement": "Sebum content in hSGs, Average as % ratio of the control group", "setting": "Table 7 experiment", "result": 88.3, "unit": "%"}
    ]}
  ]
}
